{
  "source": "patent US20030109699A1",
  "about": "“Amphiphilic quinolylpolyamines as transfer agents for biologically active macromolecules” (priority 1999, published 2003)",
  "key": {"breast tumor cells MCF7": {"tested_on": "breast tumor cells MCF7", "details": "FIG. 9; for transfection efficiency with pEGFP-N1-plasmid compared with Transfectam: mixtures with 70 mol % DOPE in ethanolic solutions, MCF7; for percentage of transfected cells after pre-complexing of the DNA with protamine sulfate: mixtures with 70 mol % DOPE, ethanolic, DNA pre-complexed with protamine sulfate versus not", "method": "The day before the transfection 40-50000 cells were seeded per well in a 24-well cell culture plate (appr. 70% confluence). For the preparation of the complexes 4 μl of the ethanolic lipid reagent (30 mol % lipid #2 respectively #7; 70 mol % DOPE) were added to a solution of each 2 μg of the plasmid-DNA (pEGFP-N1; Clontech Laboratories, Inc; catalog-nr. 6085-1) in 300 μl fcs-free medium and were incubated at room temperature for 30 min. For the transfection in the presence of protamine sulfate 2 μg plasmid-DNA was pre-complexed with 2 μg protamine sulfate in 300 μl serum free medium for 10 min whereupon 4 μl of the lipid reagent were added. Shortly before the transfection the cell culture medium was replaced with 700 μl fresh medium (14.3% fcs). After addition of the lipid-DNA complexes and incubation of the cells for 48 hours the percentage of GFP expressing fluorescent cells was determined by FACS-analysis as described above."}, "[1]": {"tested_on": "different tumor cell lines (HeLa, Hec1a, SKOV3, MCF-7, Hey, SKBR3)", "details": "lipids mixed with DOPE; all tested cell lines; versus Transfectam, Lipofectamine and DC-Chol; GFP and beta-galactosidase reporter plasmids; FIGS. 5 and 6", "text": "In general: The cell lines used HeLa, Hec1a, SKOV3, MCF-7, Hey, SKBR3, T47D, 293 were cultivated according to standard ATCC conditions. Commercial transfection reagents Transfectam®, Lipofectamine™ und Superfect were used according to the manufacturer's instructions. DC-Chol was synthesized as described previously [L. Huang et al. Biochem. Biophys. Res. Commun. 179(1) (1991) 280-285] and was formulated with DOPE for the transfection experiments.\nThe day before the transfection 40-50000 cells were seeded per well in a 24-well cell culture plate (appr. 70% confluence). For the preparation of the complexes 3 μl (for SKBR3, MCF-7, Hey) respectively 6 μl (for HeLa, Hec1a, SKOV3) of the aqueous lipid reagent (30 mol % lipid #2 respectively #7 respectively #9; 70 mol % DOPE) were added to a solution of each 2 μg of the plasmid-DNA (pEGFP-N1; Clontech Laboratories, Inc; Katalog-Nr. 6085-1) in 300 μl of fcs-free medium and were incubated at room temperature for 30 min. Shortly before the transfection the cell culture medium was replaced with 700 μl fresh medium (14.3% fcs). After addition of the lipid-DNA complexes and incubation of the cells for 48 hours the percentage of GFP expressing fluorescent cells was determined by FACS-analysis. For this the cells were washed with PBS and were separated by trypsination and subsequent centrifugation. The thus obtained cell pellet was resuspended in 500 μl PBS and the percentage of fluorescent cells was determined by FACS-analysis using a FACScan device (Becton Dickinson)."}, "eucaryotic cells": {"tested_on": "eucaryotic cells", "details": "10-100 μM chloroquine added to the cell culture medium; cited from earlier work"}},
  "data": [
    {"molecule": "CCN(CC)CCN(CCNc1ccnc2cc(Cl)ccc12)C(=O)O[C@H]1CC[C@@]2(C)C(=CC[C@H]3[C@@H]4CC[C@H]([C@H](C)CCCC(C)C)[C@@]4(C)CC[C@@H]32)C1.Cl", "note": "[#2, 7-chloro-4-[N^1-(N^4-carboxycholesteryl)-(N^7-diethyl)-1,4,7-triaza-heptyl]-quinoline Hydrochloride]", "values": [
      {"measurement": "transfection efficiency with pEGFP-N1-plasmid compared with Transfectam", "setting": "breast tumor cells MCF7", "value": "significantly more efficient"},
      {"measurement": "percentage of transfected cells after pre-complexing of the DNA with protamine sulfate", "setting": "breast tumor cells MCF7", "value": "significant increase"},
      {"measurement": "transfection efficiency compared with known lipid formulations", "setting": "[1]", "value": "higher efficiency"}
    ]},
    {"molecule": "CC(C)CCC[C@@H](C)[C@H]1CC[C@H]2[C@@H]3CC=C4C[C@@H](OC(=O)N(CCCNc5ccnc6cc(Cl)ccc56)CCN(C)C)CC[C@]4(C)[C@H]3CC[C@]12C.Cl", "note": "[#7, 7-chloro-4-[N^1-(N^5-carboxycholesteryl)-(N^8-dimethyl)-1,5,8-triaza-octyl]-quinoline Hydrochloride]", "values": [
      {"measurement": "transfection efficiency with pEGFP-N1-plasmid compared with Transfectam", "setting": "breast tumor cells MCF7", "value": "significantly more efficient"},
      {"measurement": "percentage of transfected cells after pre-complexing of the DNA with protamine sulfate", "setting": "breast tumor cells MCF7", "value": "significant increase"},
      {"measurement": "transfection efficiency compared with known lipid formulations", "setting": "[1]", "value": "higher efficiency"}
    ]},
    {"molecule": "CCCCCCCC/C=C\\CCCCCCCC(=O)OC[C@@H](CN(CCCNc1ccnc2cc(Cl)ccc12)CCN(C)C)OC(=O)CCCCCCC/C=C\\CCCCCCCC", "note": "[#9, 7-chloro-4-[N^1-(N^5-(2(R),3-dioleoyloxy)propyl)-(N^8-dimethyl)-1,5,8-triaza-octyl]-quinoline]", "values": [
      {"measurement": "transfection efficiency compared with known lipid formulations", "setting": "[1]", "value": "higher efficiency"}
    ]},
    {"molecule": "CCN(CC)CCCC(C)Nc1ccnc2cc(Cl)ccc12", "note": "(centres unmarked) [chloroquine]", "values": [
      {"measurement": "effect on the efficiency of the cationic amphiphiles", "setting": "eucaryotic cells", "value": "significantly increases the efficiency"}
    ]}
  ]
}
